This is an account of results in patent US11986471B2, “Compounds and methods of use” (Tango Therapeutics, Inc., priority 2018, dated 2024).

The target in assay [1] is T1, PRMT5 (Homo sapiens, UniProt O14744).
T1 construct: purchased Viva (custom protein)
Put plainly: PRMT5 IC50 assay in the presence of SAM as cofactor. Type of assay: biochemical. A digest of the protocol:
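MTA-dependent versus SAM-dependent inhibition of human PRMT5 was assessed by IC50; conversion factors of 13.5 and 1.5 gave the corresponding Ki.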

In assay [2] the target is T1, PRMT5. Put plainly: PRMT5 IC50 assay with no cofactor. Type of assay: biochemical. A digest of the protocol:
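For the SAM-containing format, dividing IC50 by 1.5 yields Ki; for the MTA-containing format the divisor is 13.5. A third format without cofactor gives IC50 alone.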

The target in assay [3] is T1, PRMT5. The experiment in a line: PRMT5 IC50 assay in the presence of MTA as cofactor. It is filed as biochemical. To be noted: for IC50: PRMT5, MTA as cofactor. Summed up:
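Three cofactor conditions are run: SAM-bound, MTA-bound and cofactor-free enzyme. IC50 is read from each; for the SAM and MTA arms it is divided by 1.5 and 13.5 respectively to give Ki.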

A further assay has as its system HAP1 MTAP-intact. Put plainly: SDMA in-cell western assay, HAP1 MTAP-intact cell line. It is filed as cell-based. The settings on record: Homo sapiens. A digest of the protocol:
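Using an MTAP-isogenic HAP1 cell pair, inhibition of SDMA formation is read by in-cell western and expressed as IC50. MTAP-selectivity is assigned where the ratio between lines reaches 3 fold or greater.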

For a further assay, the system named is HAP1 MTAP-deleted. The experiment in a line: SDMA in-cell western assay, HAP1 MTAP-deleted cell line. Type of assay: cell-based. To be noted: for IC50: Homo sapiens, HAP1 MTAP-deleted cell line; for MTAP Intact/Deleted Ratio: IC50 ratio HAP1 MTAP-intact / HAP1 MTAP-deleted. Summed up:
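In-cell western for SDMA marks; MTAP-deleted (null) HAP1 background; values given as IC50.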

The mark [4] stands for this setting: ratio between Ki in the presence of SAM and Ki in the presence of MTA.
Setting [5] is: ratio between the Ki in the presence of SAM and the Ki in the presence of MTA.

Bounds are passed on as bounds.

T1 sequence (O14744 whole entry): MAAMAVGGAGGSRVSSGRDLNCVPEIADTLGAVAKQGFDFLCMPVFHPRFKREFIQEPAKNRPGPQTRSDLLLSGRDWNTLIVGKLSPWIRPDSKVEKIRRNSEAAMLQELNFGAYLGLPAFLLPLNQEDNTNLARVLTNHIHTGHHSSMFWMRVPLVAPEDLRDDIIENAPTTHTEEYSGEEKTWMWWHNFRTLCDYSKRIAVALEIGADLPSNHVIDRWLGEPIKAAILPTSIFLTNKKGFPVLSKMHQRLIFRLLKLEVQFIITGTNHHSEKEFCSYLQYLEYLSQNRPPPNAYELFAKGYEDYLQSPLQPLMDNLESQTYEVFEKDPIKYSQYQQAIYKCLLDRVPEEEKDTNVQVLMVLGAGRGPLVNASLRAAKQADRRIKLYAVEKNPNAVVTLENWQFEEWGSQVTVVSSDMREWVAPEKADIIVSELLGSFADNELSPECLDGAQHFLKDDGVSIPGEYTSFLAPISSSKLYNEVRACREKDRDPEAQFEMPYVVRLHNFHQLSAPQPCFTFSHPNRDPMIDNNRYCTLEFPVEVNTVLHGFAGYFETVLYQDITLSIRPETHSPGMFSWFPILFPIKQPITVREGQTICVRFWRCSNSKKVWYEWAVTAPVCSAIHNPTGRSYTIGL
T1 sequence (Q9BQA1 whole entry partner): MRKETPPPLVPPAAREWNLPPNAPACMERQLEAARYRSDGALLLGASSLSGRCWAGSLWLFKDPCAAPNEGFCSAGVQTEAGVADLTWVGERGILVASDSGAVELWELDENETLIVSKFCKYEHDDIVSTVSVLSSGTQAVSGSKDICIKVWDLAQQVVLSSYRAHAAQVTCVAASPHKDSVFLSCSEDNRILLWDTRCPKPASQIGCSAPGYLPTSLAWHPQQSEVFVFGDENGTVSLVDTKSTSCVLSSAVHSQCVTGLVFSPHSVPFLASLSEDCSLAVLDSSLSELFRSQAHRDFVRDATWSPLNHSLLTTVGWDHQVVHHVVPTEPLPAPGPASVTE

Turning to `Cc1ncoc1COc1ccc2c(c1C)CCN(C[C@@H](O)CNC(=O)c1cc(NC3CCCC3)ncn1)C2` [Compound 367, 6-(cyclopentylamino)-N-[(2S)-2-hydroxy-3-{5-methyl-6-[(4-methyl-1,3-oxazol-5-yl)methoxy]-1,2,3,4-tetrahydroisoquinolin-2-yl}propyl]pyrimidine-4-carboxamide], the IC50 was 500 to 5000 nM at PRMT5 [1]; ≥ 5000 nM on PRMT5 [2] (read-out: No Co-factor IC50); 50 to 500 nM on PRMT5 [3]; ≥ 10000 nM with HAP1 MTAP-intact; ≥ 10000 nM in the assay on HAP1 MTAP-deleted. Also, the “SAM/MTA Ratio” value on PRMT5 [3] (setting [4]) was “A (a Ki ratio greater than or equal to 10 fold between the Ki in the presence of SAM and the Ki in the presence of MTA)”. Moreover, the “MTAP Intact/Deleted Ratio” value with HAP1 MTAP-deleted is “C* (an IC50 ratio of less than 3 fold between the IC50 in the HAP1 MTAP-intact cell line and the HAP1 MTAP-deleted cell line)”.

Turning to `CC(=O)N1CC(Nc2cc(C(=O)NC[C@H](O)CN3CCc4c(ccc(OCc5cnco5)c4Cl)C3)nc(C(C)C)n2)C1` [Compound 342, (S)-6-((1-acetylazetidin-3-yl)amino)-N-(3-(5-chloro-6-(oxazol-5-ylmethoxy)-3,4-dihydroisoquinolin-2(1H)-yl)-2-hydroxypropyl)-2-isopropylpyrimidine-4-carboxamide], the IC50 on PRMT5 [1] was 50 to 500 nM; at PRMT5 [2] (read-out: No Co-factor IC50), 500 to 5000 nM; on PRMT5 [3], 50 to 500 nM; in the assay on HAP1 MTAP-intact, ≥ 10000 nM; in the assay with HAP1 MTAP-deleted, < 1000 nM. Also, the “SAM/MTA Ratio” value on PRMT5 [3] (setting [4]) is “A (a Ki ratio greater than or equal to 10 fold between the Ki in the presence of SAM and the Ki in the presence of MTA)”. Further, the “MTAP Intact/Deleted Ratio” value in the assay with HAP1 MTAP-deleted is “A* (an IC50 ratio greater than or equal to 10 fold between the IC50 in the HAP1 MTAP-intact cell line and the HAP1 MTAP-deleted cell line)”.

Take `CCN1CCN(c2nc(NC3COC3)cc(C(=O)NC[C@H](O)CN3CCc4c(ccc(OCc5ocnc5C)c4C)C3)n2)CC1` [Compound 385, 2-(4-ethylpiperazin-1-yl)-N-[(2S)-2-hydroxy-3-{5-methyl-6-[(4-methyl-1,3-oxazol-5-yl)methoxy]-1,2,3,4-tetrahydroisoquinolin-2-yl}propyl]-6-[(oxetan-3-yl)amino]pyrimidine-4-carboxamide]: the IC50 was 50 to 500 nM on PRMT5 [1]; ≥ 5000 nM at PRMT5 [2] (read-out: No Co-factor IC50); 50 to 500 nM at PRMT5 [3]; ≥ 10000 nM in the assay with HAP1 MTAP-intact; 1000 to 10000 nM in the assay with HAP1 MTAP-deleted. For the same compound, the “SAM/MTA Ratio” value on PRMT5 [3] (setting [4]) was “A (a Ki ratio greater than or equal to 10 fold between the Ki in the presence of SAM and the Ki in the presence of MTA)”. Moreover, in the assay on HAP1 MTAP-deleted, the “MTAP Intact/Deleted Ratio” value was “C* (an IC50 ratio of less than 3 fold between the IC50 in the HAP1 MTAP-intact cell line and the HAP1 MTAP-deleted cell line)”.

Regarding `CCCC(=O)N1CC(Nc2cc(C(=O)NC[C@H](O)CN3CCc4c(ccc(OCc5cnco5)c4C)C3)ccn2)C1` [Compound 551, (S)-2-((1-butyrylazetidin-3-yl)amino)-N-(2-hydroxy-3-(5-methyl-6-(oxazol-5-ylmethoxy)-3,4-dihydroisoquinolin-2(1H)-yl)propyl)isonicotinamide], the IC50 was 50 to 500 nM at PRMT5 [1]; 500 to 5000 nM against PRMT5 [2]; 50 to 500 nM at PRMT5 [3]; ≥ 10000 nM in the assay on HAP1 MTAP-intact; ≥ 10000 nM in the assay on HAP1 MTAP-deleted. Moreover, on PRMT5 [3] (setting [5]), the “SAM/MTA Ratio” value was “A (a Ki ratio greater than or equal to 10 fold between the Ki in the presence of SAM and the Ki in the presence of MTA)”. Besides, in the assay with HAP1 MTAP-deleted, the “MTAP Intact/Deleted Ratio” value is “C* (an IC50 ratio of less than 3 fold between the IC50 in the HAP1 MTAP-intact cell line and the HAP1 MTAP-deleted cell line)”.

For the compound `CC(=O)N1CCC(Nc2cc(C(=O)NC[C@H](O)CN3CCc4cc(OCc5cnn[nH]5)ccc4C3)ncn2)CC1` [Compound 257, (S)—N-(3-(6-((1H-1,2,3-triazol-5-yl)methoxy)-3,4-dihydroisoquinolin-2(1H)-yl)-2-hydroxypropyl)-6-((1-acetylpiperidin-4-yl)amino)pyrimidine-4-carboxamide], the IC50 at PRMT5 [1] is 500 to 5000 nM; on PRMT5 [2] (read-out: No Co-factor IC50) it was ≥ 5000 nM; on PRMT5 [3], 50 to 500 nM; in the assay on HAP1 MTAP-intact, ≥ 10000 nM; in the assay with HAP1 MTAP-deleted, 1000 to 10000 nM. Further, the “SAM/MTA Ratio” value on PRMT5 [3] (setting [4]) is “A (a Ki ratio greater than or equal to 10 fold between the Ki in the presence of SAM and the Ki in the presence of MTA)”. Also, the “MTAP Intact/Deleted Ratio” value with HAP1 MTAP-deleted was “C* (an IC50 ratio of less than 3 fold between the IC50 in the HAP1 MTAP-intact cell line and the HAP1 MTAP-deleted cell line)”.

With `Cc1ncoc1COc1ccc2c(c1)CCN(C[C@@H](O)CNC(=O)c1cc(Nc3cccnc3)nc(N3[C@@H]4CC[C@H]3COC4)c1)C2` [Compound 603, 2-((1R,5S)-3-oxa-8-azabicyclo[3.2.1]octan-8-yl)-N—((S)-2-hydroxy-3-(6-((4-methyloxazol-5-yl)methoxy)-3,4-dihydroisoquinolin-2(1H)-yl)propyl)-6-(pyridin-3-ylamino)isonicotinamide], the half-inhibitory concentration (IC50) at PRMT5 [1] was 50 to 500 nM; against PRMT5 [2], 500 to 5000 nM; on PRMT5 [3], < 50 nM; in the assay with HAP1 MTAP-intact, 1000 to 10000 nM; in the assay with HAP1 MTAP-deleted, < 1000 nM. For the same compound, the “SAM/MTA Ratio” value on PRMT5 [3] (setting [5]) was “A (a Ki ratio greater than or equal to 10 fold between the Ki in the presence of SAM and the Ki in the presence of MTA)”. In addition, the “MTAP Intact/Deleted Ratio” value in the assay on HAP1 MTAP-deleted was “B* (an IC50 ratio greater than or equal to 3 fold but lower than 10 fold between the IC50 in the HAP1 MTAP-intact cell line and the HAP1 MTAP-deleted cell line)”.

As to `Cc1c(OCc2cnco2)ccc2c1CCN(C[C@@H](O)CNC(=O)c1ccnc(N[C@H]3C[C@@H](CO)C3)c1)C2` [Compound 487], the IC50 on PRMT5 [1] is 50 to 500 nM; against PRMT5 [2], ≥ 5000 nM; at PRMT5 [3] it was 50 to 500 nM; with HAP1 MTAP-intact it was ≥ 10000 nM; with HAP1 MTAP-deleted, ≥ 10000 nM. Also, the “SAM/MTA Ratio” value at PRMT5 [3] (setting [5]) is “A (a Ki ratio greater than or equal to 10 fold between the Ki in the presence of SAM and the Ki in the presence of MTA)”. Also, in the assay with HAP1 MTAP-deleted, the “MTAP Intact/Deleted Ratio” value is “C* (an IC50 ratio of less than 3 fold between the IC50 in the HAP1 MTAP-intact cell line and the HAP1 MTAP-deleted cell line)”.

For the compound `O=C(NC[C@H](O)CN1CCc2cc(OCc3cnco3)ccc2C1)c1cc(NC2COC2)nc(N2CCCCC2)n1` [Compound 325, (S)—N-(2-hydroxy-3-(6-(oxazol-5-ylmethoxy)-3,4-dihydroisoquinolin-2(1H)-yl)propyl)-6-(oxetan-3-ylamino)-2-(piperidin-1-yl)pyrimidine-4-carboxamide], the IC50 is 50 to 500 nM on PRMT5 [1]; 500 to 5000 nM on PRMT5 [2] (read-out: No Co-factor IC50); 50 to 500 nM at PRMT5 [3]; 1000 to 10000 nM in the assay on HAP1 MTAP-intact; < 1000 nM with HAP1 MTAP-deleted. Also, at PRMT5 [3] (setting [4]), the “SAM/MTA Ratio” value is “A (a Ki ratio greater than or equal to 10 fold between the Ki in the presence of SAM and the Ki in the presence of MTA)”. In the assay on HAP1 MTAP-deleted, the “MTAP Intact/Deleted Ratio” value is “C* (an IC50 ratio of less than 3 fold between the IC50 in the HAP1 MTAP-intact cell line and the HAP1 MTAP-deleted cell line)”.

As to `CC(C)C(=O)N1CCC(Nc2cc(C(=O)NC[C@H](O)CN3CCc4c(ccc(OCc5cnco5)c4Cl)C3)ccn2)CC1` [Compound 452], the IC50 is 50 to 500 nM on PRMT5 [1]; 500 to 5000 nM on PRMT5 [2]; 50 to 500 nM on PRMT5 [3]; ≥ 10000 nM in the assay with HAP1 MTAP-intact; 1000 to 10000 nM in the assay with HAP1 MTAP-deleted. In addition, the “SAM/MTA Ratio” value at PRMT5 [3] (setting [5]) is “A (a Ki ratio greater than or equal to 10 fold between the Ki in the presence of SAM and the Ki in the presence of MTA)”. Moreover, the “MTAP Intact/Deleted Ratio” value in the assay with HAP1 MTAP-deleted is “B* (an IC50 ratio greater than or equal to 3 fold but lower than 10 fold between the IC50 in the HAP1 MTAP-intact cell line and the HAP1 MTAP-deleted cell line)”.

Turning to `Cc1c(OCc2cnco2)ccc2c1CCN(C[C@@H](O)CNC(=O)c1ccnc(NC3CC4(CC4)C3)c1)C2` [Compound 472], the 50% inhibitory concentration (IC50) was 50 to 500 nM at PRMT5 [1]; 500 to 5000 nM against PRMT5 [2]; 50 to 500 nM on PRMT5 [3]; ≥ 10000 nM in the assay with HAP1 MTAP-intact; 1000 to 10000 nM in the assay on HAP1 MTAP-deleted. Moreover, at PRMT5 [3] (setting [5]), the “SAM/MTA Ratio” value was “A (a Ki ratio greater than or equal to 10 fold between the Ki in the presence of SAM and the Ki in the presence of MTA)”. The “MTAP Intact/Deleted Ratio” value in the assay on HAP1 MTAP-deleted is “B* (an IC50 ratio greater than or equal to 3 fold but lower than 10 fold between the IC50 in the HAP1 MTAP-intact cell line and the HAP1 MTAP-deleted cell line)”.

Take `Cc1ncoc1COc1ccc2c(c1C)CCN(C[C@@H](O)CNC(=O)c1ccc(OC3CCN(Cc4ccncc4)CC3)cc1)C2` [Compound 440, N-[(2S)-2-hydroxy-3-{5-methyl-6-[(4-methyl-1,3-oxazol-5-yl)methoxy]-1,2,3,4-tetrahydroisoquinolin-2-yl}propyl]-4-({1-[(pyridin-4-yl)methyl]piperidin-4-yl}oxy)benzamide]: the IC50 was 50 to 500 nM at PRMT5 [1]; 500 to 5000 nM against PRMT5 [2]; 50 to 500 nM on PRMT5 [3]; ≥ 10000 nM in the assay with HAP1 MTAP-intact; 1000 to 10000 nM in the assay with HAP1 MTAP-deleted. For the same compound, the “SAM/MTA Ratio” value on PRMT5 [3] (setting [5]) was “A (a Ki ratio greater than or equal to 10 fold between the Ki in the presence of SAM and the Ki in the presence of MTA)”. Also, the “MTAP Intact/Deleted Ratio” value in the assay with HAP1 MTAP-deleted is “B* (an IC50 ratio greater than or equal to 3 fold but lower than 10 fold between the IC50 in the HAP1 MTAP-intact cell line and the HAP1 MTAP-deleted cell line)”.

Usually IC50 stands for the point on the concentration scale where inhibition reaches its midpoint.
